“And” between values parts separate entries of the source, which are not always exact repeats. Equal values may be shown once.
What was measured:
[1] = tested on: CYPES (Cyperus esculentus, yellow nutsedge); experiment: Postemergence foliar-applied weed control, direct seeded rice, greenhouse (Example I); format: in vivo, Cyperus esculentus L.; settings: 20 DAA
Text: Seeds or nutlets of the desired test plant species were planted in a soil matrix prepared by mixing a loam or sandy loam soil (e.g., 28.6 percent silt, 18.8 percent clay, and 52.6 percent sand, with a pH of about 5.8 and an organic matter content of about 1.8 percent) and calcareous grit in an 80 to 20 ratio. The soil matrix was contained in plastic pots with a volume of 1 quart and a surface area of 83.6 square centimeters (cm^2). When required to ensure good germination and healthy plants, a fungicide treatment and/or other chemical or physical treatment was applied. The plants were grown for 8-22 days in a greenhouse with an approximate 14 h photoperiod which was maintained at about 29° C. during the day and 26° C. during the night. Nutrients (Peters Excel® 15-5-15 5-Ca 2-Mg and iron chelate) were applied in the irrigation solution as needed and water was added on a regular basis. Supplemental lighting was provided with overhead metal halide 1000-Watt lamps as necessary. The plants were employed for testing when they reached the first through fourth true leaf stage.
Treatments consisted of the acid or esters of 4-amino-3-chloro-5-fluoro-6-(4-chloro-2-fluoro-3-methoxy-phenyl)pyridine-2-carboxylic acid (Compound A), each formulated as an SC, and various herbicidal components alone and in combination. Forms of compound A were applied on an acid equivalent basis.
Other herbicidal components were applied on an active ingredient basis and included acetolactate synthase (ALS)-inhibiting herbicides (sulfonylurea chemical class) azimsulfuron formulated as Gulliver®, bensulfuron-methyl formulated as Londax® 60DF, cyclosulfamuron (technical material), ethoxysulfuron formulated as Sunrice® 15 WDG, flazasulfuron formulated as Katana®, flucetosulfuron formulated as Sukedachi® 1KG G, foramsulfuron formulated as Option®, imazosulfuron formulated as Brazzos® WG, iodosulfuron-methyl-sodium formulated as Hussar®, metsulfuron-methyl formulated as Lorate®, nicosulfuron formulated as Accent®, orthosulfamuron formulated as Strada® WG, primisulfuron-methyl (technical material), propyrisulfuron formulated as Zeta One®, rimsulfuron formulated as Matrix® WG, sulfometuron-methyl formulated as Oust®, and trifloxysulfuron-sodium formulated as Monument® 75WG.
Treatment requirements were calculated based upon the rates being tested, the concentration of active ingredient or acid equivalent in the formulation, and a 12 mL application volume at a rate of 187 L/ha.
For treatments comprised of formulated compounds, measured amounts of compounds were placed individually in 25 mL glass vials and diluted in a volume of 1.25% (v/v) Agri-Dex® crop oil concentrated to obtain 12× stock solutions. […] Application solutions were prepared by adding an appropriate amount of each stock solution (e.g., 1 mL) and diluted to the appropriate final concentrations with the addition of 10 mL of an aqueous mixture of 1.25% (v/v) crop oil concentrate so that the final spray solutions contained 1.25+/−0.05% (v/v) Agrcrop oil concentrate.
For treatments comprised of formulated and technical compounds, weighed amounts of the technical materials were placed individually in 25 mL glass vials and dissolved in a volume of 97:3 v/v acetone/DMSO to obtain 12× stock solutions, and measured amounts of the formulated compounds were placed individually in 25 mL glass vials and diluted in a volume of 1.25% (v/v) crop oil concentrate to obtain 12× stock solutions. […] Application solutions were prepared by adding an appropriate amount of each stock solution (e.g., 1 mL) and diluted to the appropriate final concentrations with the addition of an appropriate amount of an aqueous mixture of 1.5% (v/v) crop oil concentrate so that the final spray solutions contained 1.25% (v/v) crop oil concentrate. […]

[2] = tested on: CYPRO (Cyperus rotundus, purple nutsedge); experiment: In-water applied weed control, transplanted paddy rice, greenhouse (Example II); format: in vivo, Cyperus rotundus L.
Experimental: Weed seeds or nutlets of the desired test plant species were planted in puddled soil (mud) prepared by mixing a shredded, non-sterilized mineral soil (50.5 percent silt, 25.5 percent clay, and 24 percent sand, with a pH of about 7.6 and an organic matter content of about 2.9 percent) and water at a 1:1 volumetric ratio. The prepared mud was dispensed in 365 mL aliquots into 16-ounce (oz.) non-perforated plastic pots with a surface area of 86.59 square centimeters (cm^2) leaving a headspace of 3 centimeters (cm) in each pot. Rice seeds were planted in Sun Gro MetroMix® 306 planting mixture, which typically has a pH of 6.0 to 6.8 and an organic matter content of about 30 percent, in plastic plug trays. Seedlings at the second or third leaf stage of growth were transplanted into 860 mL of mud contained in 32-oz. non-perforated plastic pots with a surface area of 86.59 cm^2 4 days prior to herbicide application. The paddy was created by filling the headspace of the pots with 2.5 to 3 cm of water. When required to ensure good germination and healthy plants, a fungicide treatment and/or other chemical or physical treatment was applied. The plants were grown for 4-22 days in a greenhouse with an approximate 14 h photoperiod which was maintained at about 29′C during the day and 26° C. during the night. Nutrients were added as Osmocote® (19:6:12, N:P:K+minor nutrients) at 2 g per 16-oz. pot and 4 g per 32-oz. pot. Water was added on a regular basis to maintain the paddy flood, and supplemental lighting was provided with overhead metal halide 1000-Watt lamps as necessary. The plants were employed for testing when they reached the first through fourth true leaf stage.
Treatments consisted of the acid or esters of 4-amino-3-chloro-5-fluoro-6-(4-chloro-2-fluoro-3-methoxy-phenyl)pyridine-2-carboxylic acid (compound A) each formulated as an SC and various herbicidal components alone and in combination. Forms of compound A were applied on an acid equivalent basis.
Other herbicidal components were applied on an active ingredient basis and included acetolactate synthase (ALS)-inhibiting herbicides (sulfonylurea chemical class), azimsulfuron formulated as Gulliver®, bensulfuron-methyl formulated as Londax® 60DF, cyclosulfamuron (technical grade materail), ethoxysulfuron formulated as Sunrice® 15 WDG, flucetosulfuron formulated as Sukedachi® 1KG G, imazosulfuron formulated as Brazzos®, metsulfuron-methyl formulated as Lorate®, nicosulfuron formulated as Accent®, orthosulfamuron formulated as Strada® WG, propyrisulfuron formulated as Zeta One®, and rimsulfuron formulated as Matrix® WG.
Treatment requirements for each compound or herbicidal component were calculated based upon the rates being tested, the concentration of active ingredient or acid equivalent in the formulation, an application volume of 2 mL per component per pot, and an application area of 86.59 cm^2 per pot.
For formulated compounds, a measured amount was placed in an individual 100 or 200 mL glass vial and was dissolved in a volume of 1.25% (v/v) Agri-Dex® crop oil concentrate to obtain application solutions.
For technical grade compounds, a weighed amount was placed in an individual 100 to 200 mL glass vial and was dissolved in a volume of acetone to obtain concentrated stock solutions. […] The concentrated stock solutions obtained were diluted with an equivalent volume of an aqueous mixture containing 2.5% (v/v) crop oil concentrate so that the final application solutions contained 1.25% (v/v) crop oil concentrate.
Applications were made by injecting with a pipetter appropriate amounts of the application solutions, individually and sequentially, into the aqueous layer of the paddy. Control plants were treated in the same manner with the solvent blank. Applications were made so that all treated plant material received the same concentrations of acetone and crop oil concentrate. […]

Row | SMILES | Visual Weed Control (%) Obs ([1]; 4.38 gae/ha) | Visual Weed Control (%) Obs ([1]; 5.3 gae/ha) | Visual Weed Control (%) Obs ([1]; 8.75 gae/ha) | Visual Weed Control (%) - 20 DAA CYPRO Obs ([2]; Table 43, 10.6 gae/ha alone) | Visual Weed Control (%) - 20 DAA CYPRO Obs ([2]; Table 43, 21.2 gae/ha alone) | Visual Weed Control (%) - 20 DAA CYPRO Obs ([2]; Table 49, 10.6 gae/ha alone) | Visual Weed Control (%) - 20 DAA CYPRO Obs ([2]; Table 49, 21.2 gae/ha alone) | Visual Weed Control (%) - 20 DAA CYPRO Obs ([2]; Table 49, 42.4 gae/ha alone) | Visual Weed Control (%) Obs ([1]; 17.5 gae/ha) | Visual Weed Control (%) - 20 DAA CYPRO Obs ([2]; Table 50, 4.38 gae/ha alone) | Visual Weed Control (%) - 20 DAA CYPRO Obs ([2]; Table 50, 8.75 gae/ha alone) | Visual Weed Control (%) - 20 DAA CYPRO Obs ([2]; Table 50, 17.5 gae/ha alone)
1 | COc1c(Cl)ccc(-c2nc(C(=O)O)c(Cl)c(N)c2F)c1F [Compound A Acid, 4-amino-3-chloro-5-fluoro-6-(4-chloro-2-fluoro-3-methoxy-phenyl)pyridine-2-carboxylic acid] | 30% | 0% | 70% | 10% | 20% | 10% | 20% | 95% | – | – | – | –
2 | COc1c(Cl)ccc(-c2nc(C(=O)OCc3ccccc3)c(Cl)c(N)c2F)c1F [Compound A Benzyl Ester] | 70% and 85% | – | 80% and 90% | – | – | – | – | – | 90% | 50% | 0% | 90%

— patent US8871681B2, “Herbicidal compositions comprising 4-amino-3-chloro-5-fluoro-6-(4-chloro-2-fluoro-3-methoxyphenyl) pyridine-2-carboxylic acid or a derivative thereof and certain sulfonylureas” (Dow AgroSciences LLC, priority 2012, dated 2014)
